Assay results taken from publication PMC8509831 (International Journal of Molecular Sciences, 2021).
Where two headings read alike, the source gives them in different places. Marks after values point to notes of the source that are not given here.

How the values were obtained:
COX-1 = target: T1, COX-1 (Ovis aries, UniProt P05979); experiment: COX-1 enzyme inhibitory assay (COX inhibitor screening kit); type: biochemical
T1 construct: purchased Cayman Chemicals 560131
T1 sequence (P05979 25-600): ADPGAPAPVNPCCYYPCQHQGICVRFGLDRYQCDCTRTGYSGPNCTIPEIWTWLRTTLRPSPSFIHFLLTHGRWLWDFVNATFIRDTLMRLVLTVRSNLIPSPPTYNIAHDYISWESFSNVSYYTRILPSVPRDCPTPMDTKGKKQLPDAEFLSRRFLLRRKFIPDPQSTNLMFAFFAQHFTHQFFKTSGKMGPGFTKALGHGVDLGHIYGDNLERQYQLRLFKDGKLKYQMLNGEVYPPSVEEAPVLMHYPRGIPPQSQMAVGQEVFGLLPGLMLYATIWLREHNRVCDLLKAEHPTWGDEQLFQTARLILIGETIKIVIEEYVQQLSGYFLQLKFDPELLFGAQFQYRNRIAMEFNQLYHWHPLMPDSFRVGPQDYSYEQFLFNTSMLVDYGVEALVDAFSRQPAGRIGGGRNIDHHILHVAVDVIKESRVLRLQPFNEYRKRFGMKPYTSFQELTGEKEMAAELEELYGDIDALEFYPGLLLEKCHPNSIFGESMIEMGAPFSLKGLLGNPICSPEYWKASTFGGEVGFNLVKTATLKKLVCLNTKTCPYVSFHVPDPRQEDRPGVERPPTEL

LOX-5 = experiment: 5-LOX enzyme inhibitory assay (polarographic, Clark oxygen electrode); type: biochemical, potato; conditions: mean ± SD, n = 3
Method: The IC50 was determined for the studied compounds and reference standards. […] Furthermore, 5-LOX enzyme was extracted from potato tubers as described previously. […] The enzyme activity was expressed as moles of oxygen consumed per min/mg protein, as 5-LOX adds oxygen to the substrate, implying that the rate of decrease of oxygen in the reaction mixture was intrinsic to the measurement of enzyme activity. The results were expressed as IC50 (μg/mL) for the sample and reference compounds in triplicate.

COX-2 = target: T2, COX-2 (Homo sapiens, UniProt P35354); experiment: COX-2 enzyme inhibitory assay (COX inhibitor screening kit); type: biochemical; conditions: mean ± SD, n = 3; read-out: Enzyme Inhibitory Effect IC50 COX-2 (converted)
T2 construct: purchased Cayman Chemicals 560131
T2 sequence (P35354 18-604): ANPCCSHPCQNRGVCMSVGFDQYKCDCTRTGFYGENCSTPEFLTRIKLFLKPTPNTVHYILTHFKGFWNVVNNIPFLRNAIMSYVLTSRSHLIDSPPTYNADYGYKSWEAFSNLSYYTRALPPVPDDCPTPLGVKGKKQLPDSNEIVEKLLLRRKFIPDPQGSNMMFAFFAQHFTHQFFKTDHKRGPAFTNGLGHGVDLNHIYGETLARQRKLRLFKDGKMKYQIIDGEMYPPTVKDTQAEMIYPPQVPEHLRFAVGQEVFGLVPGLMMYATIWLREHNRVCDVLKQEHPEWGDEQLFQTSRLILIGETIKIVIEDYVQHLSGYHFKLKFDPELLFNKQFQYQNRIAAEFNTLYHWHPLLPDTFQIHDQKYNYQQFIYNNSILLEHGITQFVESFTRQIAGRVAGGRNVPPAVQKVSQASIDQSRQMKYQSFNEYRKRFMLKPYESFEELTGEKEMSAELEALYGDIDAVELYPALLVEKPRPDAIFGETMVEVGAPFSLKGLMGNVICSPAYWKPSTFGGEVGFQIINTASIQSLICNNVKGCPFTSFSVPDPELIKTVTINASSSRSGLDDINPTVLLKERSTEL

CDK2 = experiment: Western blot, CDK2 expression; type: cell-based, human; conditions: HeLa, 30 μg/mL, 12-48 h
Method: (§1) HeLa cells (1.5 × 10^6 cells/well) were seeded in six-well plates and cultured in MEM supplemented with 10% FBS for 24 h. Subsequently, the cells were treated with the indicated amounts of Q3G or DMSO as a vehicle control for 12–48 h. Following this, the cells were collected, and total lysates from treated cells were prepared in RIPA buffer for 15 min. Protein concentration was determined using a Bio-Rad protein assay kit with BSA [63]. […] Membranes were treated with PBS containing 0.05% Tween 20 and 5% nonfat dry milk to block nonspecific binding at 15–25 °C and were incubated overnight at 4 °C with the following specific primary antibodies: caspase-9/-3, Bax, Bcl-2, Bid, CDK2, and MuD. β-Actin was used as an invariant control for equal loading of total proteins. After incubation with the primary antibody, the membranes were incubated with the appropriate secondary antibodies conjugated to horseradish peroxidase. Finally, immunoreactive bands were visualized using an enhanced chemiluminescence substrate (Bio-Rad).

caspase-9 = experiment: Western blot, caspase-9 expression; type: cell-based, human; conditions: HeLa, 30 μg/mL, 12, 24, and 48 h
Method: as §1

Bax = experiment: Western blot, Bax expression; type: cell-based, human; conditions: HeLa, 30 μg/mL, 12, 24, and 48 h
Method: as §1

MuD = experiment: Western blot, MuD expression; type: cell-based, human; conditions: HeLa, 30 μg/mL, 12, 24, and 48 h
Method: as §1

Bcl-2 = experiment: Western blot, Bcl-2 expression; type: cell-based, human; conditions: HeLa, 30 μg/mL, 12, 24, and 48 h
Method: as §1

HeLa cells [1] = experiment: Intracellular ROS production (DCFDA fluorescence); type: cell-based, human; conditions: 30 μg/mL
Method: Cellular ROS production was analyzed as previously described with minor modifications to the original methodology. Briefly, cells were seeded at a density of 1.5 × 10^4/well in a black, clear bottom 96-well plate. The following day, cells were treated with […] (30 μg/mL) or DMSO as a vehicle control for 12-48 h. Forty-five minutes prior to completion of the treatment, 100 μL of 2× H2DCFDA dilution was overlayed in each well and incubated in 5% CO2 with DCFDA as well as the compounds for 30 min at 37 °C. The fluorescence in each well was assessed on a microplate reader at the end point in the presence of compounds and DCFDA with Ex/Em = 485/535 nm wavelengths.

HeLa cells [2] = experiment: Cell cycle analysis by PI flow cytometry; type: cell-based, human; conditions: 30 μg/mL, listed as Q3G
Method: Cell cycle analysis was performed in HeLa cells as previously described. Cells were seeded into six-well plates at a density of 2 × 10^5 cells per well and treated with […] (30 μg/mL) for 12-48 h. Thereafter, the cells were harvested, washed with PBS, and fixed at 4 °C for 1 h in a 70% PBS-ethanol solution. Cells were subsequently washed twice with PBS, and 50 μL of a 100 μg/mL stock of DNase-free RNase was added to ensure that only DNA, not RNA, was stained. Cell pellets were stained with a fluorescent probe PI (50 μg/mL) and incubated at RT for 30 min, and then analyzed using a NovoCyte 1000 benchtop flow cytometer (ACEA Biosciences, San Diego, CA, USA).

HeLa cells [3] = experiment: Annexin V-FITC/PI apoptosis assay by flow cytometry; type: cell-based, human
Method: Annexin V-FITC/propidium iodide (PI) assay was performed as per the manufacturer's instructions (Sino Biological, Beijing, China). Briefly, HeLa cells (2 × 10^5 cells/well) in 6-well culture plates were treated with […] (30 μg/mL) or with DMSO as a vehicle control for 24 and 48 h. Subsequently, floating as well as adherent cells were collected and washed with PBS. The cells were centrifuged at 400× g for 5 min at RT and resuspended in binding buffer containing Annexin V-FITC, along with PI. In each experiment, 1 × 10^4 cells were analyzed for annexin V-FITC/PI staining after incubation for 20 min at RT in the dark.

WST cell viability assay = type: cell-based, human; conditions: human, HeLa cells, HeLa
Method: (§2) The viability of HeLa cells treated with […] (0-100 μg/mL, concentrations) was examined for 24-72 h using a colorimetric WST assay. Briefly, HeLa cells were cultured in a clear-bottom 96-well plate at a density of 9 × 10^3 cells/well in MEM supplemented with 10% FBS and 1% penicillin-streptomycin in a 5% CO2 incubator and incubated for 24 h at 37 °C. The […] stock solution was prepared in DMSO and stored at -20 °C. Subsequently, the cells were exposed to various concentrations of […] (0-100 μg/mL) over a period of 24-72 h. The cell proliferation reagent WST-1 solution (10 μL/well) was added to the plates, followed by incubation in 5% CO2 for 2 h at 37 °C in the dark. Thereafter, the plates were shaken thoroughly for 1 min on a shaker at RT, and the absorbance of the reporter substrate was measured at 450 nm and 600 nm (reference wavelength 650 nm) using a microplate reader coupled with the Gen5 software (BioTek, Winooski, VT, USA).

HeLa cells [4] = experiment: WST cell viability assay; type: cell-based, human; conditions: for Cell Viability (%): HeLa, 40 μg/mL, listed as Q3G
Method: as §2

[5] = mean ± SD, n = 3, read-out: Enzyme Inhibitory Effect IC50 COX-1 (converted)

O=C(O)/C=C/c1ccc(O)c(O)c1 [Caffeic acid]
IC50 (COX-1; [5]): 113 µM | Enzyme Inhibitory Effect IC50 LOX-5 (LOX-5): 12.26 ± 0.91 ^g μg/mL

O=C(/C=C/c1ccc(O)c(O)c1)O[C@@H]1C[C@](O)(C(=O)O)C[C@@H](O)[C@H]1O [Chlorogenic acid]
IC50 (COX-1; [5]): 39.7 µM | IC50 (COX-2): 75.3 µM | Enzyme Inhibitory Effect IC50 LOX-5 (LOX-5): 9.98 ± 0.94 ^e μg/mL

O=C(O)/C=C/c1ccc(O)cc1 [Coumaric acid]
IC50 (COX-1; [5]): 55.4 µM | IC50 (COX-2): 93.2 µM | Enzyme Inhibitory Effect IC50 LOX-5 (LOX-5): 7.96 ± 0.76 ^d μg/mL

Oc1cc(O)c2c(c1)O[C@H](c1ccc(O)c(O)c1)[C@H](O)C2 [Epicatechin]
IC50 (COX-1): 63 µM | Enzyme Inhibitory Effect IC50 LOX-5 (LOX-5): 10.09 ± 1.03 ^f μg/mL

O=C(CCc1ccc(O)cc1)c1c(O)cc(O)cc1O [Phloretin]
IC50 (COX-1; [5]): 91.7 µM | IC50 (COX-2): 121 µM | Enzyme Inhibitory Effect IC50 LOX-5 (LOX-5): 16.86 ± 1.22 ^h μg/mL

O=C(CCc1ccc(O)cc1)c1c(O)cc(O)cc1O[C@@H]1O[C@H](CO)[C@@H](O)[C@H](O)[C@H]1O [Phloridzin]
IC50 (COX-1; [5]): 65.6 µM | IC50 (COX-2): 83 µM | Enzyme Inhibitory Effect IC50 LOX-5 (LOX-5): 18.98 ± 0.85 ^i μg/mL

O=c1c(O[C@@H]2O[C@H](CO)[C@@H](O)[C@H](O)[C@H]2O)c(-c2ccc(O)c(O)c2)oc2cc(O)cc(O)c12 [Quercetin-3-glucoside, quercetin 3-β-D-glucoside]
protein expression of CDK2 (CDK2): decreasing | expression of the initiator caspase, caspase-9 (caspase-9): reduced | level of Bax (Bax): increase | MuD expression (MuD): markedly reduced | level of anti-apoptotic protein Bcl-2 (Bcl-2): reduced | IC50 (COX-1): 7.8 µM | ROS level higher than the control group (HeLa cells [1]; 12 h): approximately 6 fold | ROS level higher than the control group (HeLa cells [1]; 24 h): ~12 fold | cells in S phase (HeLa cells [2]; 24 h): ~56% | cells in S phase (HeLa cells [2]; 48 h): ~63% | Enzyme Inhibitory Effect IC50 LOX-5 (LOX-5): 2.31 ± 0.32 ^b μg/mL | cells in early apoptosis (HeLa cells [3]; 30 μg/mL, 48 h): Approximately 20% | cells in the late apoptosis phase (HeLa cells [3]; 30 μg/mL, 48 h): ~35% | difference in apoptosis (early and late phase) compared with the control cells (HeLa cells [3]; 24 h of treatment): No significant difference | increase in the number of apoptotic cells (Annexin V-positive cells) (HeLa cells [3]; after 48 h compared to after 24 h of treatment): 16–22% | viability at 48 h, 0.1 μg/mL (WST cell viability assay; 0.1 μg/mL, 48 h): 114.98 ± 0.05% | viability at 48 h, 1 μg/mL (WST cell viability assay; 1 μg/mL, 48 h): 103.3 ± 0.12% | viability at 48 h, 10 μg/mL (WST cell viability assay; 10 μg/mL, 48 h): 116.1 ± 0.01% | viability at 24 h, 40 μg/mL (WST cell viability assay; 40 μg/mL, 24 h): 83% | viability at 48 h, 40 μg/mL (WST cell viability assay; 40 μg/mL, 48 h): 36% | viability at 72 h, 40 μg/mL (WST cell viability assay; 40 μg/mL, 72 h): 18% | viability at 48 h, 50 μg/mL (WST cell viability assay; 50 μg/mL, 48 h): 29.6% | viability at 48 h, 100 μg/mL (WST cell viability assay; 100 μg/mL, 48 h): 41.81 ± 0.01% | concentrations with significant growth inhibition (HeLa cells [4]; HeLa cells, 48 h): higher than 10 µg/mL | Cell Viability (%) (HeLa cells [4]; 24 h): 83.30 ± 4.05% | Cell Viability (%) (HeLa cells [4]; 48 h): 36.27 ± 1.38% | Cell Viability (%) (HeLa cells [4]; 72 h): 17.97 ± 1.42%

O=c1c(O)c(-c2ccc(O)c(O)c2)oc2cc(O)cc(O)c12 [Quercetin]
IC50 (COX-1; [5]): 20.2 µM | IC50 (COX-2): 37.4 µM
